Here are results for 12 molecules from ChEMBL document CHEMBL5532756, “Phenylthiazoles with potent & optimum selectivity toward Clostridium difficile” (RSC Med Chem, 2024).

What all share (assay type): functional
One test concerns Staphylococcus aureus. Description: Antimicrobial activity against methicillin-resistant Staphylococcus aureus USA300.
Another test relates to Candida albicans. The test can be described thus: Antimicrobial activity against Candida albicans ATCC 64124.
Another test concerns Clostridioides difficile. The test can be described thus: Antimicrobial activity against Clostridioides difficile ATCC BAA-1870.
In test [1] the test system is Escherichia coli. The test can be described thus: Antimicrobial activity against Escherichia coli BW25113.
For the next test, the system named is Neisseria gonorrhoeae. The test can be described thus: Antimicrobial activity against Neisseria gonorrhoeae 194.
The subject of test [2] is Escherichia coli. The test can be described thus: Antimicrobial activity against Escherichia coli JW55031 harboring TolC mutant.

≈ marks a conversion by molar mass, not a printed value.

One may read the MIC as the lowest concentration found to suppress growth. Low values mean inhibition by little substance, high ones a need for much substance. For the molecule `Cc1nc(-c2ccc3ccccc3c2)sc1-c1ccnc(N2CCC[C@@H]2C(N)=O)n1`, the MIC is above 64 µg/mL with Staphylococcus aureus; above 64 µg/mL against Candida albicans; 64 µg/mL (≈ 154 µM) with Clostridioides difficile; above 64 µg/mL in the test on Escherichia coli [1]; above 64 µg/mL in the test on Neisseria gonorrhoeae; 64 µg/mL (≈ 154 µM) with Escherichia coli [2].
On to `Cc1nc(-c2ccc3ccccc3c2)sc1-c1ccnc(NCCO)n1`, for which the MIC in the test on Staphylococcus aureus was above 64 µg/mL; with Candida albicans, 1 µg/mL (≈ 2.76 µM); with Clostridioides difficile, 64 µg/mL (≈ 177 µM); in the test with Escherichia coli [1] it was above 64 µg/mL; in the test on Neisseria gonorrhoeae, above 64 µg/mL; in the test with Escherichia coli [2], above 64 µg/mL.
In the case of `Cc1nc(-c2ccc3ccccc3c2)sc1-c1ccnc(NC[C@H](O)CO)n1`, the MIC in the test with Staphylococcus aureus was above 64 µg/mL; against Candida albicans, above 64 µg/mL; in the test on Clostridioides difficile, 64 µg/mL (≈ 163 µM); against Escherichia coli [1], above 64 µg/mL; in the test with Neisseria gonorrhoeae it was above 64 µg/mL; with Escherichia coli [2], above 64 µg/mL.
Take `Cc1nc(-c2ccc3ccccc3c2)sc1-c1ccnc(N2CCC[C@H]2CO)n1`: the MIC in the test with Staphylococcus aureus is above 64 µg/mL; against Candida albicans, above 64 µg/mL; against Clostridioides difficile, 64 µg/mL (≈ 159 µM); against Escherichia coli [1] it was above 64 µg/mL; against Neisseria gonorrhoeae it was above 64 µg/mL; against Escherichia coli [2] it was above 64 µg/mL.
Turning to `Cc1nc(-c2ccc3ccccc3c2)sc1-c1ccnc(N2CCC(N)C2)n1` (configuration not stated), the MIC in the test on Staphylococcus aureus was 8 µg/mL (≈ 20.6 µM); against Candida albicans, 8 µg/mL (≈ 20.6 µM); in the test on Clostridioides difficile, 16 µg/mL (≈ 41.3 µM); in the test with Escherichia coli [1], above 64 µg/mL; against Neisseria gonorrhoeae, above 64 µg/mL; against Escherichia coli [2] it was above 64 µg/mL.
For `Cc1nc(-c2ccc3ccccc3c2)sc1-c1ccnc(NCCCN)n1`, the MIC in the test with Staphylococcus aureus is above 64 µg/mL; against Candida albicans it was above 64 µg/mL; against Clostridioides difficile, 64 µg/mL (≈ 170 µM); with Escherichia coli [1] it was above 64 µg/mL; in the test on Neisseria gonorrhoeae, above 64 µg/mL; with Escherichia coli [2], above 64 µg/mL.
Consider `Cc1nc(-c2ccc3ccccc3c2)sc1-c1ccnc(NCCCO)n1`, for which the MIC against Staphylococcus aureus is above 64 µg/mL; with Candida albicans it was above 64 µg/mL; with Clostridioides difficile, 64 µg/mL (≈ 170 µM); in the test with Escherichia coli [1] it was above 64 µg/mL; against Neisseria gonorrhoeae it was above 64 µg/mL; with Escherichia coli [2], above 64 µg/mL.
Turning to `Cc1nc(-c2ccc3ccccc3c2)sc1-c1ccnc(NC[C@@H](O)CO)n1`, the MIC with Staphylococcus aureus is above 64 µg/mL; against Candida albicans, above 64 µg/mL; with Clostridioides difficile it was 64 µg/mL (≈ 163 µM); in the test with Escherichia coli [1], above 64 µg/mL; with Neisseria gonorrhoeae it was above 64 µg/mL; with Escherichia coli [2], above 64 µg/mL.
In the case of `Cc1nc(-c2ccc3ccccc3c2)sc1-c1ccnc(NC(CO)CO)n1`, the MIC against Staphylococcus aureus was above 64 µg/mL; against Candida albicans, above 64 µg/mL; with Clostridioides difficile it was 64 µg/mL (≈ 163 µM); in the test with Escherichia coli [1], above 64 µg/mL; against Neisseria gonorrhoeae it was 64 µg/mL (≈ 163 µM); in the test with Escherichia coli [2], above 64 µg/mL.
For the molecule `Cc1nc(-c2ccc3ccccc3c2)sc1-c1ccnc(N2CC[C@@H](N(C)C)C2)n1`, the MIC in the test with Staphylococcus aureus was 32 µg/mL (≈ 77 µM); against Candida albicans, 64 µg/mL (≈ 154 µM); in the test on Clostridioides difficile, 64 µg/mL (≈ 154 µM); in the test on Escherichia coli [1], 64 µg/mL (≈ 154 µM); against Neisseria gonorrhoeae it was above 64 µg/mL; against Escherichia coli [2] it was above 64 µg/mL.
On to `Cc1nc(-c2ccc3ccccc3c2)sc1-c1ccnc(N2CCC[C@@H]2CO)n1`, for which the MIC against Staphylococcus aureus is above 64 µg/mL; against Candida albicans it was above 64 µg/mL; with Clostridioides difficile, 64 µg/mL (≈ 159 µM); against Escherichia coli [1] it was above 64 µg/mL; in the test on Neisseria gonorrhoeae it was 32 µg/mL (≈ 79.5 µM); in the test on Escherichia coli [2], above 64 µg/mL.
For `Cc1nc(-c2ccc3ccccc3c2)sc1-c1ccnc(N[C@H]2CC[C@H](N)CC2)n1`, the MIC is 8 µg/mL (≈ 19.3 µM) with Staphylococcus aureus; 16 µg/mL (≈ 38.5 µM) in the test on Candida albicans; 32 µg/mL (≈ 77 µM) with Clostridioides difficile; above 64 µg/mL in the test with Escherichia coli [1]; above 64 µg/mL against Neisseria gonorrhoeae; above 64 µg/mL against Escherichia coli [2].
